Test results as given in patent US7985771B2, “Furanone derivatives” (Monsanto Technology LLC, priority 2002, dated 2011).

These compounds were tested on ELAM (E-selectin) expression in endothelial cells (assay: E-selectin (ELAM) cell inflammation assay). Conditions: LPS and IL-1β stimulation, read-out: reduction of expression of ELAM, EC50.
Assay type: cell-based
Procedure: Endothelial-Leukocyte Adhesion Molecule (ELAM), also known as E-selectin, is expressed on the surface of endothelial cells. In this assay, lipopolysaccharide (LPS) and IL-1β are used to stimulate the expression of ELAM; test agents are tested for their abilities to reduce this expression, in accordance with studies showing that reduction of leukocyte adhesion to endothelial cell surface is associated with decreased cellular damage (e.g., Takada, M., Et al., Transplantation 64: 1520-25, 1997; Steinberg, J. B., et al., J. Heart Lung Trans. 13:306-313, 1994).
Endothelial cells may be selected from any of a number of sources and cultured according to methods known in the art; including, for example, coronary artery endothelial cells, human brain microvascular endothelial cells (HBMEC; Hess, D.C., et al., Neurosci. Left. 213(1): 37-40, 1996), or lung endothelial cells. Cells are conveniently cultured in 96-well plates. Cells are stimulated by adding a solution to each well containing 10 μg/ml LPS and 100 pg/ml IL-1β for 6 hours in the presence of test agent (specific concentrations and time may be adjusted depending on the cell type). Treatment buffer is removed and replaced with pre-warmed Fixing Solution® (100 μl/well) for 25 minutes at room temperature. Cells are then washed 3×, then incubated with Blocking Buffer (PBS+2% FBS) for 25 minutes at room temperature. Blocking Buffer containing Monoclonal E-Selectin Antibody (1:750, Sigma Catalog #S-9555) is added to each well. Plates are sealed and stored at 4° overnight. Plates are washed 4× with 160 μL Blocking Buffer per well. Second Antibody-HRP diluted 1:5000 in Blocking Buffer is then added (100 μL/well), and plates are incubated at room temperature (protected from light) for two hours. Plates are then washed 4× with Blocking Buffer before addition of 100 μL of ABTS Substrate solution at room temperature (Zymed, Catalog #00-2024). Wells are allowed to develop for 35 minutes, before measurement at 402 nm in a Fluoroskan® Reader with shake program for 10 seconds. Positive results are recorded as a decrease in ELAM concentration in tested wells, as compared to control wells.

Q: For CCOC(=O)C1(C[S+]([O-])Cc2ccco2)OC(=O)C(O)=C1S(=O)(=O)Cc1ccco1 (stereo not drawn) [2-(Furan-2-ylmethanesulfinylmethyl)-3-(furan-2-ylmethanesulfonyl)-4-hydroxy-5-oxo-2,5-dihydro-furan-2-carboxylic acid ethyl ester], which EC50 is on record?
A: ≤ 30 µM

Q: CCOC(=O)C1OC(=O)C(O)=C1Sc1nc2ccccc2[nH]1 (stereo not drawn) [3-(1H-Benzoimidazol-2-ylsulfanyl)-4-hydroxy-5-oxo-2,5-dihydro-furan-2-carboxylic acid ethyl ester] was tested. Which EC50 did it give?
A: ≤ 30 µM

Q: For CCOC(=O)C1(CSc2ccccc2Cl)OC(=O)C(O)=C1Sc1ccccc1Cl (stereo not drawn) [3-(2-Chloro-phenylsulfanyl)-2-(2-chloro-phenylsulfanylmethyl)-4-hydroxy-5-oxo-2,5-dihydro-furan-2-carboxylic acid ethyl ester], which EC50 is on record?
A: ≤ 30 µM

Q: Which EC50 does the source give for CN(C)CCSCC1(C(=O)O)OC(=O)C(O)=C1SCCN(C)C (stereo not drawn) [3-(2-Dimethylamino-ethylsulfanyl)-2-(2-dimethylamino-ethylsulfanylmethyl)-4-hydroxy-5-oxo-2,5-dihydro-furan-2-carboxylic acid] here?
A: ≤ 30 µM

Q: For CCOC(=O)C1(CSc2nc3cc(Cl)c(Cl)cc3[nH]2)OC(=O)C(O)=C1Sc1nc2cc(Cl)c(Cl)cc2[nH]1 (stereo not drawn) [3-(5,6-Dichloro-1H-benzoimidazol-2-ylsulfanyl)-2-(5,6-dichloro-1H-benzoimidazol-2-ylsulfanylmethyl)-4-hydroxy-5-oxo-2,5-dihydro-furan-2-carboxylic acid ethyl ester], which EC50 is on record?
A: ≤ 30 µM

Q: Which EC50 does the source give for CCOC(=O)C1(CSc2nc3cc(Cl)ccc3s2)OC(=O)C(O)=C1Sc1nc2cc(Cl)ccc2s1 (stereo not drawn) [3-(5-Chloro-benzothiazol-2-ylsulfanyl)-2-(5-chloro-benzothiazol-2-ylsulfanylmethyl)-4-hydroxy-5-oxo-2,5-dihydro-furan-2-carboxylic acid ethyl ester] here?
A: ≤ 30 µM

Q: How did the EC50 turn out when O=C1OC(CSc2nc3ccccc3s2)(C(=O)O)C(Sc2nc3ccccc3s2)=C1O (stereo not drawn) [3-(Benzothiazol-2-ylsulfanyl)-2-(benzothiazol-2-ylsulfanylmethyl)-4-hydroxy-5-oxo-2,5-dihydro-furan-2-carboxylic acid] was run?
A: ≤ 30 µM

Q: For CCCCCCSCC1(C(=O)OCC)OC(=O)C(O)=C1SCCCCCC (stereo not drawn) [3-Hexylsulfanyl-2-hexylsulfanylmethyl-4-hydroxy-5-oxo-2,5-dihydro-furan-2-carboxylic acid ethyl ester], which EC50 is on record?
A: ≤ 30 µM

Q: With O=C1NC(=O)C2(OC(=O)C(O)=C2Sc2nc3ccccc3[nH]2)C(=O)N1 [4-(1H-Benzoimidazol-2-ylsulfanyl)-3-hydroxy-1-oxa-7,9-diaza-spiro[4,5]dec-3-ene-2,6,8,10-tetraone] as the compound, how does the EC50 read?
A: ≤ 30 µM

Q: How did the EC50 turn out when O=C1OC(CO)(CSc2nc3cc(S(=O)(=O)O)ccc3[nH]2)C(Sc2nc3cc(S(=O)(=O)O)ccc3[nH]2)=C1O (stereo not drawn) [4-(5-sulfo-1H-benzoimidazol-2-ylsulfanyl)-5-(5-sulfo-1H-benzoimidazol-2-ylsulfanylmethyl)-3-hydroxy-5-hydroxymethyl-5H-furan-2-one] was run?
A: ≤ 30 µM

Q: With CCOC(=O)C1(CSCc2ccco2)OC(=O)C(OC(C)=O)=C1SCc1ccco1 (stereo not drawn) [4-Acetoxy-3-(furan-2-ylmethylsulfanyl)-2-(furan-2-ylmethylsulfanylmethyl)-5-oxo-2,5-dihydro-furan-2-carboxylic acid ethyl ester] as the compound, how does the EC50 read?
A: ≤ 30 µM

Q: For CCOC(=O)C1(CSCc2ccccc2)OC(=O)C(OC(C)=O)=C1SCc1ccccc1 (stereo not drawn) [4-Acetoxy-3-benzylsulfanyl-2-benzylsulfanylmethyl-5-oxo-2,5-dihydro-furan-2-carboxylic acid ethyl ester], which EC50 is on record?
A: ≤ 30 µM

Q: With CCOC(=O)C1(CSc2nc3ccccc3n2CC)OC(=O)C(OCC)=C1Sc1nc2ccccc2n1CC (stereo not drawn) [4-Ethoxy-3-(1-ethyl-1H-benzoimidazol-2-ylsulfanyl)-2-(1-ethyl-1H-benzoimidazol-2-ylsulfanylmethyl)-5-oxo-2,5-dihydro-furan-2-carboxylic acid ethyl ester] as the compound, how does the EC50 read?
A: ≤ 30 µM

Q: How did the EC50 turn out when Cc1ccc2[nH]c(SC3=C(O)C(=O)OC3C(=O)OC3CC(C)CCC3C(C)C)nc2c1 (stereo not drawn) [4-Hydroxy-3-(5-methyl-1H-benzoimidazol-2-ylsulfanyl)-5-oxo-2,5-dihydro-furan-2-carboxylic acid 2-isopropyl-5-methyl-cyclohexyl ester] was run?
A: ≤ 30 µM

Q: CCOC(=O)C1(CSc2ccc3ccccc3c2)OC(=O)C(O)=C1Sc1ccc2ccccc2c1 (stereo not drawn) [4-Hydroxy-3-(naphthalen-2-ylsulfanyl)-2-(naphthalen-2-ylsulfanylmethyl)-5-oxo-2,5-dihydro-furan-2-carboxylic acid ethyl ester] was tested. Which EC50 did it give?
A: ≤ 30 µM

Q: How did the EC50 turn out when CCOC(=O)C1(CSc2nnnn2-c2ccccc2)OC(=O)C(O)=C1Sc1nnnn1-c1ccccc1 (stereo not drawn) [4-Hydroxy-5-oxo-3-(1-phenyl-1H-tetrazol-5-ylsulfanyl)-2-(1-phenyl-1H-tetrazol-5-ylsulfanylmethyl)-2,5-dihydro-furan-2-carboxylic acid ethyl ester] was run?
A: ≤ 30 µM

Q: Which EC50 does the source give for CCOC(=O)C1(CSCCS(=O)(=O)O)OC(=O)C(O)=C1SCCS(=O)(=O)O (stereo not drawn) [4-Hydroxy-5-oxo-3-(2-sulfo-ethylsulfanyl)-2-(2-sulfo-ethylsulfanylmethyl)-2,5-dihydro-furan-2-carboxylic acid ethyl ester] here?
A: ≤ 30 µM

Q: With CCOC(=O)C1(CSc2ccnc3cc(C(F)(F)F)ccc23)OC(=O)C(O)=C1Sc1ccnc2cc(C(F)(F)F)ccc12 (stereo not drawn) [4-Hydroxy-5-oxo-3-(7-trifluoromethyl-quinolin-4-ylsulfanyl)-2-(7-trifluoromethyl-quinolin-4-ylsulfanylmethyl)-2,5-dihydro-furan-2-carboxylic acid ethyl ester] as the compound, how does the EC50 read?
A: ≤ 30 µM

Q: CCOC(=O)C1(CSC(=S)N2CCCC2)OC(=O)C(O)=C1SC(=S)N1CCCC1 (stereo not drawn) [4-Hydroxy-5-oxo-3-(pyrrolidine-1-carbothioylsulfanyl)-2-(pyrrolidine-1-carbothioylsulfanylmethyl)-2,5-dihydro-furan-2-carboxylic acid ethyl ester] was tested. Which EC50 did it give?
A: ≤ 30 µM

Q: With CN(C)CC(=O)OCC1(CSc2nc3ccccc3[nH]2)OC(=O)C(O)=C1Sc1nc2ccccc2[nH]1 (stereo not drawn) [Dimethylamino-acetic acid 3-(1H-benzoimidazol-2-ylsulfanyl)-2-(1H-benzoimidazol-2-ylsulfanylmethyl)-4-hydroxy-5-oxo-2,5-dihydro-furan-2-ylmethyl ester] as the compound, how does the EC50 read?
A: ≤ 30 µM

Q: With CCOC(=O)[C@]1(CSCC(NC(=O)CCC(N)C(=O)O)C(=O)NCC(=O)O)OC(=O)C(O)=C1SCC(NC(=O)CCC(N)C(=O)O)C(=O)NCC(=O)O (stereo partly drawn) [R-3-[2-(4-Amino-4-carboxy-butyrylamino)-2-(carboxymethyl-carbamoyl)-ethylsulfanyl]-2-[2-(4-amino-4-carboxy-butyrylamino)-2-(carboxymethyl-carbamoyl)ethylsulfanylmethyl]-4-hydroxy-5-oxo-2,5-dihydro-furan-2-carboxylic acid ethyl ester] as the compound, how does the EC50 read?
A: ≤ 30 µM
